Consider 5 compounds from paper PMC6789442, “Unraveling Hepcidin Plasma Protein Binding: Evidence from Peritoneal Equilibration Testing” (Pharmaceuticals, 2019).

For series [1] the following is noted: in vivo.
Procedure: (§4) Dialysate sampling was performed at 1 h of dwell time (t = 1 h), since peritoneal transport of solutes with a low MW (<200 Da) will decrease over a longer period of time due to saturation of the dialysate [22]. For sampling, all dialysate fluid was collected in a plastic (PVC) bag and mixed ex vivo before a sample was taken, to assure dialysate samples were representative for the fluid in the peritoneal cavity. Thereafter, the remaining dialysate was returned into the peritoneal cavity. […] Blood samples were drawn prior to dialysis (t = 0 h) in both heparin plasma and serum tubes. All were centrifuged at 2000 g for 10 min. Blood and dialysate samples were aliquoted and immediately stored at −80 °C until measurement.
(§5) Measurement results for solutes below the lower limit of detection (LLOD) were excluded.
Series [2] is described as follows: Solute concentration in peritoneal dialysate at 1 h dwell. Here is the method: (§1) All were centrifuged at 2000 g for 10 min.
(§2) Measurements of urea, creatinine, and IgG were performed on a Cobas C8000 random access analyzer (Roche Diagnostics, Basel, Switzerland).
(§3) This MS-based assay determines total hepcidin (i.e., the sum of bound and unbound fraction). Peptide spectra were generated on a Microflex LT […] laser desorption/ionisation TOF MS platform (Bruker Daltonics, Hamburg, Germany). Hepcidin concentrations were expressed as nmol/L. The lower limit of quantification of this method was 0.5 nM.
Testosterone and cortisol in peritoneal dialysate were analyzed by LC-MS/MS after solid-phase extraction. Sample preparation consisted of internal standard addition [13C3]-testosterone (Isoscience, Ambler, PA, USA) and […] (Isoscience) to 1000 µL dialysate and solid phase extraction (SPE) using Oasis® MCX 1cc cartridges (Waters Corp, Milford, MA, USA).
Columns were pre-equilibrated with 1 mL MeOH:IPA (95:5) and subsequently washed with 1 mL H2O. After application of the sample, columns were washed with 1 mL H2O:NH4OH (95:5) and 1 mL MeOH:H2O (20/80) + 2% HCOOH. The 300 µL eluate (MeOH) was dried under a stream of N2 gas, reconstituted in MeOH:H2O (30:70). A nine-point calibration series was used (using testosterone and cortisol both from Steraloids). Calibrators, quality controls, and samples (reconstituted in 100 µL) were injected (10 µL) into an Agilent Technologies 1290 Infinity VL UHPLC-system (Agilent Technologies, Santa Clara, USA), equipped with a BEH C18 (1.7 μm 2.1 X 50 mm) analytical column (Waters Corp., Milford, MA, USA) at 60 °C. Mobile phase A (MeOH/H2O (20:80) + 2 mM NH4CH3COO + 0.1% HCOOH) and B (MeOH/H2O (98:2) + 2 mM NH4CH3COO + 0.1% HCOOH) were run in a gradient (0.4 mL/min). The gradient program was as follows: Start gradient A:B (70:30) for 2.5 min; followed by a gradient in 2 min to A:B (60:40) and subsequent 2.5 min A:B (35:65). For column washing, a gradient 0.5 min A:B (98:2) was established to remain such for 0.5 min. The column was re-equilibrated to A:B (70:30) in 0.5 min and remained such for 0.5 min. […] An Agilent 6490 tandem mass spectrometer (Agilent Technologies, Santa Clara, CA, USA) was operated in the electrospray positive ion mode. Operating conditions were as follows: Capillary voltage 3.5 kV, fragmentor voltage 380 V, sheath gas temperature 350 °C, and gas temperature 150 °C. The collision energy was optimized between 25 and 34 eV for all solutes and Nitrogen was used as collision gas. Two mass transitions were monitored for each analyte and the internal standards. The first transition was used for quantification, the second for confirmation. The transitions (Q1 > Q3) were m/z 289 > 97 and m/z 289 > 109 for testosterone; m/z 292 > 100 and m/z 292 > 112 for [13C3]-testosterone; m/z 363 > 121 and m/z 363 > 97 for cortisol; m/z 367 > 121 and m/z 367 > 97 for [3H4]-cortisol. Total run time was 9 min.
For both total and free cortisol PC calculations, we used total cortisol measurements in dialysate, since we assume that all cortisol present in dialysate after 1 h of dwell time is free considering the large MW of its main binding protein corticosteroid binding globulin (MW 52 kDa).

The conditions of series [3]: ESRD patients, serum at t = 0 h, equilibrium dialysis 5 h, 37 °C, 5 kDa membrane, HEPES buffer pH 7.40, LC-MS/MS, N = 9.
Procedure: Serum was dialyzed in a multi-cell equilibrium dialyzer using Teflon dialyzing cells consisting of two identical parts between which a flat membrane is fitted (Dianorm-Geräte). The dialysis cells are incubated in a water bath with constant agitation by a rotating apparatus and temperature during dialysis was maintained at 37 ± 0.5 °C, by constant monitoring with an immersion thermostatic system (Tinytag TGP-4020 logger and PB5001-1M5 sonde; Gemini data loggers). The dialysis membranes were prepared from Dianorm (Diachema dialysis membranes 10.14) with a cut-off of 5 kDa. Equilibrium dialysis was performed for 5 h with 180 µL serum against 180 µL HEPES buffer; while rotating the dialysis apparatus at 20 rpm.
A short description of series [4]: Peritoneal clearance from peritoneal equilibration test (PET). Conditions: ESRD patients in PET; for Peritoneal Clearance t = 0–1 h Mean (sd): [Dialysate] t = 1 h / [Blood] t = 0 h × dialysate volume / 60 min, total blood concentration, N 14, 13 testosterone, 10 cortisol, 13 hepcidin.
Procedure: as §4, §5
Series [5] can be described thus: Solute concentration in blood (plasma/serum) before dialysis. The protocol: as §1, §2, §3
Cortisol and testosterone were analyzed by Liquid Chromatography-Mass Spectrometry (LC-MS/MS) after protein precipitation and solid-phase extraction. Internal standard [^2H4]-cortisol and [^13C3]-testosterone (Isoscience, Ambler, PA, USA) was added to 100 µL serum. Subsequently, 300 µL acetonitrile with 0.1% formic acid was added for protein precipitation and 300 µL H2O was added to 200 µL supernatant followed by solid phase extraction (Oasis HLB 1cc, Waters, Milford, MA, USA). The eluate (methanol:isopropanol 95:5) was dried under a stream of N2 gas, reconstituted in methanol:water (3:7) and injected (10 µL) into an Agilent Technologies 1290 Infinity Ultra High Performance Liquid Chromatography (UHPLC)-system (Agilent Technologies, Agilent, Santa Clara, CA, USA) equipped with a BEH C18 (1.7 μm 2.1 × 50 mm) analytical column (Waters Corp.) at 60 °C. Mobile phase A (methanol:water 20:80 + 2 mM NH4CH3COO + 0.1% formic acid) and B (methanol:water 98:2 + 2 mM NH4CH3COO + 0.1% formic acid) were run in a gradient (0.4 mL/min). Start gradient 70:30 A:B for 2.5 min; then to 40:60 A:B in 3.5 min; followed by a gradient in 0.5 min to 2:98 to remain such for 0.5 min and thereafter to 70:30 A:B in 0.5 min and remain such for 0.5 min. […] Total run time was 8 min. A 9-point calibration curve was used (cortisol and testosterone, Steraloids). An Agilent 6490 tandem mass spectrometer (Agilent Technologies, Agilent, Santa Clara, CA, USA) was operated in the electrospray positive ion mode, with a capillary voltage 3.5 kV, fragmentor voltage 380 V, sheath gas temperature 350 °C, and gas temperature 150 °C with N2 collision gas. Two transitions (qualitative and quantitative) were monitored. Transitions (Q1 > Q3) were m/z 363.4 > 97.1 (34 V) and m/z 363.4 > 121.1 (25 V) for cortisol; m/z 367.4 > 97.1 (34 V) and m/z 367.4 > 121.1 (25 V) for [2H4]-cortisol. m/z 289.2 > 109.1 […] and m/z 289.2 > 97.1 […] for testosterone; m/z 292.3 > 112.1 […] and m/z 292.3 > 100.1 […] for 13C3-testosterone. Dwell time was 100 ms and 50 ms for cortisol and testosterone, respectively.

The subject of series [6] is plasma proteins. In words: Plasma protein binding percentage calculated from measured vs expected peritoneal clearance (MW-clearance curve). The format is in vivo, human. Conditions: (1 − measured PC / expected PC) × 100%; expected PC from Log10(PC) = 4.5744 – 0.05063 × cube root MW; ESRD patients in PET; mean (±sd). An excerpt:
Logarithmic transformation was used for PC data before statistical analysis, as the data was not normally distributed. In addition, we used a cube root scaling for MW, since transport rates are related to size and thus radius (r), and considering volume as a three-dimensional characteristic of the radius (r^3). The curve describing the relation between MW and PC of all analytes was estimated with a linear mixed model using a random slope and random intercept. The expected PC of each analyte could be calculated using its MW and the equation of the curve. We calculated the binding percentage as:Binding percentage (%) = (1 − (Measured PC)/(Expected PC)) × 100%.(3)
In this equation, the measured PC divided by the expected PC represents the free hormone fraction. The strength of a linear association between the clearances of two analytes was measured using Spearman’s correlation coefficient.

The conditions of series [7]: rapidly excreted by the kidneys; cited from earlier work. The text has this: Our finding that hepcidin is not predominantly bound is in line with other literature, in which a merely freely circulating hepcidin was observed using gel chromatography on human serum samples, followed by Liquid Chromatography-Mass Spectrometry (LC-MS/MS). In fact, other peptide hormones such as human growth hormone, insulin [28], and cardiac natriuretic hormones circulate freely, since peptide hormones are often water-soluble and can, therefore, easily be transported via the cardiovascular system without requiring carrier proteins. In addition, hepcidin is ...

[8] abbreviates: peritoneal dialysate at 1 h dwell, 3.86% glucose solution, ESRD patients, total measurement, mean (sd), N 13 testosterone, 10 cortisol, 13 hepcidin.

Like-named read-outs stand apart in the source and are kept apart here.

With `C[C@]12CCC(=O)C=C1CC[C@@H]1[C@@H]2[C@@H](O)C[C@@]2(C)[C@H]1CC[C@]2(O)C(=O)CO` [Cortisol, cortisol], in series [1], the “Peritoneal Clearance t = 0–1 h Mean (sd)” value is 1439.0 (490.8) µL/min. In addition, the “[Dialysate] t = 1 h Mean (sd)” value in series [2] (setting [8]) was 8.4 (5.8) nmol/L. In addition, the “[Dialysate] t = 1 h Mean (sd), row of free cortisol” value in series [2] (total cortisol measured in dialysate at 1 h, assumed to be all free, used for free cortisol clearance, mean (sd), N = 9) is given as 8.4 (5.8) nmol/L. Further, the “[Plasma] t = 0 h Mean (sd), free cortisol” value in series [3] is given as 12.7 (7.7) nmol/L. Moreover, the “Peritoneal Clearance t = 0–1 h Mean (sd), free cortisol” value in series [4] (calculated with free serum cortisol at t = 0 h and total cortisol in dialysate at 1 h, N = 9) is 25,030.8 (8123.9) µL/min. In series [5] (in vivo), the “[Plasma] t = 0 h Mean (sd), total concentration” value is on record as 229.1 (134.4) nmol/L. Also, in series [6], the “Binding percentage (protein-bound fraction)” value is given as 91% (±3%).
In the case of `CN1CC(=O)NC1=N` [Creatinine, creatinine], in series [1], the “Peritoneal Clearance t = 0–1 h Mean (sd)” value was 21,499.6 (5861.6) µL/min. In addition, the “[Dialysate] t = 1 h Mean (sd)” value in series [2] (in vivo) is 296.9 (119.9) µmol/L. Further, the “[Plasma] t = 0 h Mean (sd)” value in series [5] (in vivo) was 542.0 (172.6) µmol/L.
For `C[C@]12CC[C@H]3[C@@H](CCC4=CC(=O)CC[C@@]43C)[C@@H]1CC[C@@H]2O` [Testosterone, testosterone], the “[Dialysate] t = 1 h Mean (sd)” value in series [2] (setting [8]) is 0.1 (0.1) nmol/L. Besides, the “Peritoneal Clearance t = 0–1 h Mean (sd)” value in series [4] is 507.7 (260.5) µL/min. In addition, the “[Plasma] t = 0 h Mean (sd), total concentration” value in series [5] (ESRD patients undergoing PET, blood at t = 0 h, total = free and protein-bound, cortisol/testosterone LC-MS/MS, hepcidin WCX-TOF MS, mean (sd), N 13 testosterone, 10 cortisol, 13 hepcidin) is given as 8.6 (7.3) nmol/L. The “Binding percentage (protein-bound fraction)” value in series [6] is reported as 97% (±1.5%).
Turning to `NC(N)=O` [Urea, urea], the “[Dialysate] t = 1 h Mean (sd)” value in series [2] (peritoneal dialysate at 1 h dwell, 3.86% glucose solution, ESRD patients, mean (sd), N = 14) is on record as 15.0 (6.1) mmol/L. The “Peritoneal Clearance t = 0–1 h Mean (sd)” value in series [4] was 26,959.1 (6211.8) µL/min. Also, the “[Plasma] t = 0 h Mean (sd)” value in series [5] (ESRD patients on peritoneal dialysis undergoing PET, blood drawn before dialysis (t = 0 h), endogenous solute, mean (sd), N = 14) is reported as 21.5 (6.6) mmol/L.
On to hepcidin, for which the “[Dialysate] t = 1 h Mean (sd)” value in series [2] (in vivo) is on record as 1.2 (1.1) nmol/L. Moreover, in series [4], the “Peritoneal Clearance t = 0–1 h Mean (sd)” value is 4337.5 (1713.1) µL/min. The “[Plasma] t = 0 h Mean (sd), total concentration” value in series [5] (in vivo) is given as 10.6 (9.1) nmol/L. Also, the half-life entry in series [7] was “several hours”. Besides, the “Binding percentage (protein-bound fraction)” value in series [6] is 40% (±23%).
